# Results: patent publication US20240342071A1, “HEXAPEPTIDE,COSMETIC COMPOSITION OR PHARMACEUTICAL COMPOSITION CONTAINING SAME, AND USE OF HEXAPEPTIDE” (SHENZHEN WINKEY TECHNOLOGY CO., LTD, priority 2021, published 2024)
# How the values were obtained:
# [1] = test system: HaCaT cells; experiment: Cell viability assay (MTT) on HaCaT cells; assay type: cell-based, Human; conditions: 72 h; for toxicity to HaCaT cells: 100 ppm, compared with the control group
# From the text: Phosphate-buffered saline (PBS) (Gibco), thiazolyl blue (MTT) (Sigma), dimethyl sulfoxide (DMSO) (Sigma), a high glucose culture medium (DMEM) (Gibco), and fetal bovine serum (Gibco).
# Human keratinocytes (HaCaT) were purchased from the Kunming Cell Bank of China Center for Type Culture Collection under the Chinese Academy of Sciences.
# The peptide Ac-Phe-Phe-Trp-Phe-His-Val-NH2 (hereinafter referred to as the reference peptide) at a test concentration of 1 ppm, 10 ppm, 50 ppm, and 100 ppm respectively; • the peptide (5) at a test concentration of 1 ppm, 10 ppm, 50 ppm, and 100 ppm, respectively; • the peptide (11) at a test concentration of 1 ppm, 10 ppm, 50 ppm, and 100 ppm, respectively; • the peptide (17) at a test concentration of 1 ppm, 10 ppm, 50 ppm, and 100 ppm, respectively. Control group: • PBS blank control.
# The frozen HaCaT cells were cultured and passaged at a ratio of 1:2 to about the 5th generation, and the cells in better growth were selected as experiment subjects.
# The cells were inoculated in a 96-well plate at 2000 cells/well. After the cells adhered to the wall, samples of the drug groups and the control group were added according to the multiple dilution method, supplemented with a culture medium to 200 μL, and incubated in a 5% CO2 incubator at 37° C. for 72 h.
# Then 22 μL 5 mg/ml MTT was added to each well and the incubation was continued in the 5% CO2 incubator at 37° C. for 4 h. The original solution was removed and 150 μL/well DMSO was added. After 5 min, the microplate reader was used to read the reference OD values at 490 nm and 630 nm wavelengths.
# The MTT assay is a method of detecting cell survival and growth. The control group is taken as a reference value. Four dosage concentrations were set from high to low for each sample, and cell viability assays were carried out on HaCaT cells. The measured OD values are directly proportional to cell viability.
# [2] = test system: TNF-α; experiment: Anti-inflammatory cell assay: TNF-α ELISA in LPS-stimulated RAW 264.7 cells; assay type: cell-based, Mouse; conditions: 200 ng/mL LPS; for effect on TNF-α expression compared with the positive drug dexamethasone: 100 ppm peptide vs 50 ng/ml dexamethasone, RAW 264.7; for TNF-α expression: 100 ppm, RAW 264.7, 48 h, vs LPS alone
# Procedure: (§1) Fetal bovine serum, DMEM culture medium, penicillin, streptomycin, an IL-6 ELISA kit and a TNF-α ELISA kit.
# (§2) Mouse monocyte macrophages (RAW 264.7 cells).
# (§3) 100 ppm of the reference peptide, 100 ppm of the peptide (5), 100 ppm of the peptide (11), and 100 ppm of the peptide (17); the peptides were dissolved with a PBS solution, respectively.
# (§4) The frozen RAW 264.7 cells were cultured and passaged at a ratio of 1:2 to about the 5th generation, and the cells in better growth were selected as experiment subjects.
# (§5) A cell suspension was diluted properly and inoculated on a 6-well plate at 100,000 cells/well. When the cells were about 80% confluent, an LPS-stimulated inflammation model was established. A blank control group (control), a LPS group, a dexamethasone group (DXM), and polypeptide groups were set. The blank control group was supplemented with the culture medium to 1000 μL; in the LPS group, 200 ng/mL LPS was added, and supplemented with the culture medium to 1000 μL; in the dexamethasone group, 200 ng/mL LPS and 50 ng/ml dexamethasone were added, and supplemented with the culture medium to 1000 μL; in the polypeptide groups, 200 ng/mL LPS and a polypeptide were added, and supplemented with culture medium to 1000 μL (the final test concentration of the polypeptide was 100 ppm). The above groups were further incubated in a 5% CO2 incubator at 37° C. for 48 h. The solutions were centrifuged at 3000 rpm for 15 min, in each of which a cell supernatant was collected to obtain a sample liquid. Operations were performed according to the instructions of the IL-6 and TNF-α ELISA kits.
# (§6) Inflammatory factors such as TNF-α and IL-6 can cause the body's immune overresponse, leading to skin ulcers, redness and other problems. Therefore, inhibiting inflammatory factors such as TNF-α and IL-6 secreted by monocytes in the skin can achieve anti-inflammatory and repairing effects. An inflammation model was established by stimulating RAW 264.7 cells with 200 ng/mL LPS to investigate the anti-inflammatory and repairing effects of the peptides of the present invention.
# [3] = test system: IL-6; experiment: Anti-inflammatory cell assay: IL-6 ELISA in LPS-stimulated RAW 264.7 cells; assay type: cell-based, Mouse; conditions: 100 ppm, 200 ng/mL LPS, RAW 264.7, 48 h, vs LPS alone
# Procedure: as §1, §2, §3, §4, §5, §6
Substance,toxicity to HaCaT cells [1],effect on TNF-α expression compared with the positive drug dexamethasone [2],TNF-α expression [2],expression of IL-6 [3],"proliferation effects on cells ([1]; HaCaT, 50 ppm)"
"Ac-FFWFHG-NH2 [peptide (17), Ac-Phe-Phe-Trp-Phe-His-Gly-NH2]",no toxicity,"equivalent to that of the positive drug dexamethasone, or having even more excellent effects than dexamethasone",significantly down-regulated,significantly down-regulated,–
"Ac-FFWFHL-NH2 [peptide (11), Ac-Phe-Phe-Trp-Phe-His-Leu-NH2]",no toxicity,"equivalent to that of the positive drug dexamethasone, or having even more excellent effects than dexamethasone",significantly down-regulated,significantly down-regulated,–
"Ac-FFWFHV-NH2 [reference peptide, Ac-Phe-Phe-Trp-Phe-His-Val-NH2, reference compound]",no toxicity,"equivalent to that of the positive drug dexamethasone, or having even more excellent effects than dexamethasone",significantly down-regulated,significantly down-regulated,significant proliferation effects
"Ac-FFWFKV-NH2 [peptide (5), Ac-Phe-Phe-Trp-Phe-Lys-Val-NH2]",no toxicity,–,–,–,–
